Data: PubChem BioAssay (NCI)
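Assay format: 96-well plates, 48-hour exposure. The concentration for 50% growth inhibition is given as GI50. TGI: total growth inhibition.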

Legend:
Test in all cases: NCI anticancer screen, dose series, 48 h
A549 NSCLC = test system: A549 NSCLC
ACHN renal = test system: ACHN renal
CAKI-1 renal = test system: CAKI-1 renal
CCRF-CEM leukemia = test system: CCRF-CEM leukemia
DLD-1 colon = test system: DLD-1 colon
DMS 114 small cell lung = test system: DMS 114 small cell lung
DMS 273 small cell lung = test system: DMS 273 small cell lung
HCC-2998 colon = test system: HCC-2998 colon
HCT-116 colon = test system: HCT-116 colon
HCT-15 colon = test system: HCT-15 colon
HL-60(TB) leukemia = test system: HL-60(TB) leukemia
HOP-62 NSCLC = test system: HOP-62 NSCLC
HOP-92 NSCLC = test system: HOP-92 NSCLC
IGROV1 ovarian = test system: IGROV1 ovarian
K-562 leukemia = test system: K-562 leukemia
KM12 colon = test system: KM12 colon
LOX IMVI melanoma = test system: LOX IMVI melanoma
LXFL 529 NSCLC = test system: LXFL 529 NSCLC
M14 melanoma = test system: M14 melanoma
M19-MEL melanoma = test system: M19-MEL melanoma
MALME-3M melanoma = test system: MALME-3M melanoma
MOLT-4 leukemia = test system: MOLT-4 leukemia
NCI-H226 lung = test system: NCI-H226 lung
NCI-H23 lung = test system: NCI-H23 lung
NCI-H522 lung = test system: NCI-H522 lung
OVCAR-3 ovarian = test system: OVCAR-3 ovarian
OVCAR-4 ovarian = test system: OVCAR-4 ovarian
OVCAR-5 ovarian = test system: OVCAR-5 ovarian
OVCAR-8 ovarian = test system: OVCAR-8 ovarian
RPMI-8226 leukemia = test system: RPMI-8226 leukemia
RXF 393 renal = test system: RXF 393 renal
RXF-631 renal = test system: RXF-631 renal
SF-268 CNS = test system: SF-268 CNS
SF-295 CNS = test system: SF-295 CNS
SF-539 CNS = test system: SF-539 CNS
SK-MEL-2 melanoma = test system: SK-MEL-2 melanoma
SK-MEL-28 melanoma = test system: SK-MEL-28 melanoma
SK-MEL-5 melanoma = test system: SK-MEL-5 melanoma
SK-OV-3 ovarian = test system: SK-OV-3 ovarian
SN12C renal = test system: SN12C renal
SNB-75 CNS = test system: SNB-75 CNS
SNB-78 CNS = test system: SNB-78 CNS
SR leukemia = test system: SR leukemia
SW-620 colon = test system: SW-620 colon
TK-10 renal = test system: TK-10 renal
U251 CNS = test system: U251 CNS
UACC-257 melanoma = test system: UACC-257 melanoma
UACC-62 melanoma = test system: UACC-62 melanoma
XF 498 CNS = test system: XF 498 CNS
786-0 renal = test system: 786-0 renal
A498 renal = test system: A498 renal
BT-549 breast = test system: BT-549 breast
COLO 205 colon = test system: COLO 205 colon
DU-145 prostate = test system: DU-145 prostate
EKVX NSCLC = test system: EKVX NSCLC
HS 578T breast = test system: HS 578T breast
HT29 colon = test system: HT29 colon
MCF7 breast = test system: MCF7 breast
MDA-MB-231 breast = test system: MDA-MB-231 breast
MDA-MB-435 = test system: MDA-MB-435
NCI-H460 lung = test system: NCI-H460 lung
NCI/ADR-RES ovarian = test system: NCI/ADR-RES ovarian
PC-3 prostate = test system: PC-3 prostate
SNB-19 CNS = test system: SNB-19 CNS
T-47D breast = test system: T-47D breast
UO-31 renal = test system: UO-31 renal

CC1NS(=O)(=O)N(C)C1=O (stereo not drawn) showed a TGI (A549 NSCLC) greater than 100 µM, a TGI (ACHN renal) greater than 100 µM and a TGI (CAKI-1 renal) greater than 100 µM. The TGI (CCRF-CEM leukemia) was greater than 100 µM, the TGI (DLD-1 colon) was greater than 100 µM and the TGI (DMS 114 small cell lung) was greater than 100 µM. The TGI (DMS 273 small cell lung) was greater than 100 µM, the TGI (HCC-2998 colon) was greater than 100 µM and the TGI (HCT-116 colon) was greater than 100 µM. For the same molecule, the TGI (HCT-15 colon) was greater than 100 µM, the TGI (HL-60(TB) leukemia) was greater than 100 µM and the TGI (HOP-62 NSCLC) was greater than 100 µM. It also gave a TGI (HOP-92 NSCLC) greater than 100 µM, a TGI (IGROV1 ovarian) greater than 100 µM and a TGI (K-562 leukemia) greater than 100 µM. For the same molecule, the TGI (KM12 colon) was greater than 100 µM, the TGI (LOX IMVI melanoma) was greater than 100 µM and the TGI (LXFL 529 NSCLC) was greater than 100 µM. It also gave a TGI (M14 melanoma) greater than 100 µM, a TGI (M19-MEL melanoma) greater than 100 µM and a TGI (MALME-3M melanoma) greater than 100 µM. The TGI (MOLT-4 leukemia) was greater than 100 µM, the TGI (NCI-H226 lung) was greater than 100 µM and the TGI (NCI-H23 lung) was greater than 100 µM. The TGI (NCI-H522 lung) was greater than 100 µM, the TGI (OVCAR-3 ovarian) was greater than 100 µM and the TGI (OVCAR-4 ovarian) was greater than 100 µM. For the same molecule, the TGI (OVCAR-5 ovarian) was greater than 100 µM, the TGI (OVCAR-8 ovarian) was greater than 100 µM and the TGI (RPMI-8226 leukemia) was greater than 100 µM. For the same molecule, the TGI (RXF 393 renal) was greater than 100 µM, the TGI (RXF-631 renal) was greater than 100 µM and the TGI (SF-268 CNS) was greater than 100 µM. It also gave a TGI (SF-295 CNS) greater than 100 µM, a TGI (SF-539 CNS) greater than 100 µM and a TGI (SK-MEL-2 melanoma) greater than 100 µM. The TGI (SK-MEL-28 melanoma) was greater than 100 µM, the TGI (SK-MEL-5 melanoma) was greater than 100 µM and the TGI (SK-OV-3 ovarian) was greater than 100 µM. The TGI (SN12C renal) was greater than 100 µM, the TGI (SNB-75 CNS) was greater than 100 µM and the TGI (SNB-78 CNS) was greater than 100 µM. The TGI (SR leukemia) was greater than 100 µM, the TGI (SW-620 colon) was greater than 100 µM and the TGI (TK-10 renal) was greater than 100 µM. The TGI (U251 CNS) was greater than 100 µM, the TGI (UACC-257 melanoma) was greater than 100 µM and the TGI (UACC-62 melanoma) was greater than 100 µM. It also gave a TGI (XF 498 CNS) greater than 100 µM.

Nc1n[n+](=O)c2ccccc2n1O showed a TGI (786-0 renal) greater than 100 µM, a GI50 (A498 renal) of 11.9 µM and a TGI (A498 renal) greater than 100 µM. The TGI (A549 NSCLC) was greater than 100 µM, the TGI (ACHN renal) was greater than 100 µM and the GI50 (BT-549 breast) was 19.3 µM. It also gave a TGI (BT-549 breast) greater than 100 µM, a TGI (CAKI-1 renal) greater than 100 µM and a TGI (CCRF-CEM leukemia) greater than 100 µM. For the same molecule, the TGI (COLO 205 colon) was greater than 100 µM, the TGI (DMS 114 small cell lung) was greater than 100 µM and the TGI (DMS 273 small cell lung) was greater than 100 µM. For the same molecule, the GI50 (DU-145 prostate) was 69.1 µM, the TGI (DU-145 prostate) was greater than 100 µM and the TGI (EKVX NSCLC) was greater than 100 µM. For the same molecule, the GI50 (HCC-2998 colon) was 50.7 µM, the TGI (HCC-2998 colon) was greater than 100 µM and the GI50 (HCT-116 colon) was 62.9 µM. The TGI (HCT-116 colon) was greater than 100 µM, the TGI (HCT-15 colon) was greater than 100 µM and the TGI (HL-60(TB) leukemia) was greater than 100 µM. For the same molecule, the TGI (HOP-62 NSCLC) was greater than 100 µM, the TGI (HOP-92 NSCLC) was greater than 100 µM and the GI50 (HS 578T breast) was greater than 100 µM. It also gave a TGI (HS 578T breast) greater than 100 µM, a TGI (HT29 colon) greater than 100 µM and a TGI (IGROV1 ovarian) greater than 100 µM. It also gave a TGI (K-562 leukemia) greater than 100 µM, a TGI (KM12 colon) greater than 100 µM and a TGI (LOX IMVI melanoma) greater than 100 µM. The TGI (LXFL 529 NSCLC) was greater than 100 µM, the TGI (M14 melanoma) was greater than 100 µM and the TGI (M19-MEL melanoma) was greater than 100 µM. For the same molecule, the TGI (MALME-3M melanoma) was greater than 100 µM, the GI50 (MCF7 breast) was 60.5 µM and the TGI (MCF7 breast) was greater than 100 µM. It also gave a GI50 (MDA-MB-231 breast) greater than 100 µM, a TGI (MDA-MB-231 breast) greater than 100 µM and a GI50 (MDA-MB-435) greater than 100 µM. It also gave a TGI (MDA-MB-435) greater than 100 µM, a TGI (MOLT-4 leukemia) greater than 100 µM and a TGI (NCI-H226 lung) greater than 100 µM. For the same molecule, the GI50 (NCI-H23 lung) was 29.6 µM, the TGI (NCI-H23 lung) was greater than 100 µM and the TGI (NCI-H460 lung) was greater than 100 µM. For the same molecule, the TGI (NCI-H522 lung) was greater than 100 µM, the GI50 (NCI/ADR-RES ovarian) was 55.2 µM and the TGI (NCI/ADR-RES ovarian) was greater than 100 µM. It also gave a TGI (OVCAR-3 ovarian) greater than 100 µM, a TGI (OVCAR-4 ovarian) greater than 100 µM and a TGI (OVCAR-5 ovarian) greater than 100 µM. It also gave a TGI (OVCAR-8 ovarian) greater than 100 µM, a GI50 (PC-3 prostate) of 94.3 µM and a TGI (PC-3 prostate) greater than 100 µM. For the same molecule, the TGI (RPMI-8226 leukemia) was greater than 100 µM, the TGI (RXF 393 renal) was greater than 100 µM and the TGI (RXF-631 renal) was greater than 100 µM. For the same molecule, the TGI (SF-268 CNS) was greater than 100 µM, the TGI (SF-295 CNS) was greater than 100 µM and the TGI (SF-539 CNS) was greater than 100 µM. The TGI (SK-MEL-2 melanoma) was greater than 100 µM, the TGI (SK-MEL-28 melanoma) was greater than 100 µM and the TGI (SK-MEL-5 melanoma) was greater than 65.7 µM. It also gave a TGI (SK-OV-3 ovarian) greater than 100 µM, a TGI (SN12C renal) greater than 100 µM and a TGI (SNB-19 CNS) greater than 100 µM. The TGI (SNB-75 CNS) was greater than 100 µM, the TGI (SNB-78 CNS) was greater than 100 µM and the GI50 (SR leukemia) was 20.6 µM. For the same molecule, the TGI (SR leukemia) was greater than 100 µM, the TGI (SW-620 colon) was greater than 100 µM and the GI50 (T-47D breast) was 38.4 µM. For the same molecule, the TGI (T-47D breast) was greater than 100 µM, the TGI (TK-10 renal) was greater than 100 µM and the TGI (U251 CNS) was greater than 100 µM. It also gave a TGI (UACC-257 melanoma) greater than 100 µM, a TGI (UACC-62 melanoma) greater than 100 µM and a TGI (UO-31 renal) greater than 100 µM. For the same molecule, the TGI (XF 498 CNS) was greater than 100 µM.
